Laboratory results: patent US10206937B2, “Boronic acid derivatives and therapeutic uses thereof” (Qpex Biopharma, Inc., priority 2014, dated 2019)

Legend:
[1] = target: T1, purified class A, C and D enzymes (UniProt Q6XEC0); assay type: biochemical; details: read-out: Ki (OXA-48, NCF); purified OXA-48; nitrocefin reporter substrate
T1 construct: rows headed: Ki (OXA-48, NCF); other: purified OXA-48; nitrocefin reporter substrate

[2] = target: T2, purified class A, C and D enzymes (UniProt P0AD64, L31Q/G234S/E235K, species not given); assay type: biochemical; details: read-out: Ki (SHV-12, NCF); purified SHV-12; nitrocefin reporter substrate
T2 construct: Ki (SHV-12, NCF); other: purified SHV-12; nitrocefin reporter substrate
T2 sequence (P0AD64 1-286 L31Q/G234S/E235K): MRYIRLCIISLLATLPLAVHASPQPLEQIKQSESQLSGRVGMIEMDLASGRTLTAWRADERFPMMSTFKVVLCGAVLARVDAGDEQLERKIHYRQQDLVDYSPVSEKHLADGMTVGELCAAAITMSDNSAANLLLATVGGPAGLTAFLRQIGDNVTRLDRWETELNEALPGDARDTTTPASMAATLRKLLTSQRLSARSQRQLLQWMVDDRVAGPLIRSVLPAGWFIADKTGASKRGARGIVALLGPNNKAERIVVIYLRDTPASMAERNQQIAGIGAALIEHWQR

[3] = target: purified class A, C and D enzymes (Escherichia coli, UniProt Q9L5C7); assay type: biochemical; details: purified CTX-M-14; nitrocefin reporter substrate
[4] = target: T3, purified class A, C and D enzymes (UniProt Q9F663); assay type: biochemical; details: read-out: Ki (KPC-2, NCF); purified KPC-2; nitrocefin reporter substrate
T3 construct: rows headed: Ki (KPC-2, NCF); other: purified KPC-2; nitrocefin reporter substrate

[5] = target: purified class A, C and D enzymes (Enterobacter cloacae, UniProt P05364); assay type: biochemical; details: purified P99/AmpC of ECL; nitrocefin reporter substrate
VIM-1 = target: T4, VIM-1 (Pseudomonas aeruginosa, UniProt A0A0F7KYQ8); test: biochemical; details: cleavage of nitrocefin (200 uM) by VIM-1 supernatant
T4 construct: made in house; host or cells: ECM6711 strain carrying pUCP24-VIM-1 plasmid; culture supernatant used unpurified

NDM-1 [6] = target: T5, NDM-1 (Klebsiella pneumoniae, UniProt C7C422); test: Inhibition of purified class B carbapenemase NDM-1 (Ki, imipenem substrate); assay type: biochemical; details: NDM-1, substrate imipenem; read-out: Ki NDM-1, Imipenem
NDM-1 [7] = target: T5, NDM-1; test: biochemical; details: cleavage of imipenem (100 uM) by NDM-1; read-out: Ki, Imipenem

T5 sequence (C7C422 29-270, looked up, species assumed): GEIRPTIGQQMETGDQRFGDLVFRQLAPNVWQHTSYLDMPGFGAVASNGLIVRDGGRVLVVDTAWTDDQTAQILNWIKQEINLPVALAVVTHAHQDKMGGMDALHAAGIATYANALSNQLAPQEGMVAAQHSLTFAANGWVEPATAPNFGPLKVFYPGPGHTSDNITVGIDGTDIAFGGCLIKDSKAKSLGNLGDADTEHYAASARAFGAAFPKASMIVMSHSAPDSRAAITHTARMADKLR
Sequence of purified class A, C and D enzymes (Escherichia coli, UniProt Q9L5C7) (Q9L5C7 entry or part of it): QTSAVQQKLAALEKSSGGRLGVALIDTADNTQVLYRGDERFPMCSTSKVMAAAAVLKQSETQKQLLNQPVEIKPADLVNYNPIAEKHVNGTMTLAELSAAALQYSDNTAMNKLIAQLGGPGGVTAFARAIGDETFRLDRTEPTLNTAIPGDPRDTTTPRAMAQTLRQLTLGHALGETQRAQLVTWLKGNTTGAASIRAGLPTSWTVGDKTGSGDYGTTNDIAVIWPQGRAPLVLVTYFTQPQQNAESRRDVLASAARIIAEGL
Sequence of purified class A, C and D enzymes (Enterobacter cloacae, UniProt P05364) (P05364 21-381): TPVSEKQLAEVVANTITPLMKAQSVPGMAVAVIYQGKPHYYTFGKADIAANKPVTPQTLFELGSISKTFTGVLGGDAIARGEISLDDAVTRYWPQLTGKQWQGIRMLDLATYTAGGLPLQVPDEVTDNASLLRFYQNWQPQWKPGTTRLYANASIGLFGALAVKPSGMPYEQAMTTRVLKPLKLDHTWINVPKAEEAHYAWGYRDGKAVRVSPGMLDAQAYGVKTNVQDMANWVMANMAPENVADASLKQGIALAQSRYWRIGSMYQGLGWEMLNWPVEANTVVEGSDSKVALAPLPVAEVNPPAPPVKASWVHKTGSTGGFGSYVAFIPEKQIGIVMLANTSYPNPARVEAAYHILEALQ

O=C(O)c1c(F)ccc2c1OB(O)[C@@H](Sc1nncs1)C2 [Compound 59, (3R)-7-fluoro-2-hydroxy-3-(1,3,4-thiadiazol-2-ylsulfanyl)-3,4-dihydro-1,2-benzoxaborinine-8-carboxylic acid]
Ki [1]: < 100 nM
Ki [2]: < 100 nM
Ki (CTX-M-14, NCF) [3]: X (Less than 0.1 μM)
Ki [4]: < 100 nM
Ki (P99/AmpC of ECL, NCF) [5]: Y (0.1 μM to 1 μM)
IC50 (VIM-1): < 1000 nM
Ki (NDM-1 [6]): > 100 nM
Ki (NDM-1 [7]): > 100 nM

NCc1cnc(S[C@H]2Cc3ccc(F)c(C(=O)O)c3OB2O)s1 [Compound 57, (3R)-3-[5-(aminomethyl)thiazol-2-yl]sulfanyl-7-fluoro-2-hydroxy-3,4-dihydro-1,2-benzoxaborinine-8-carboxylic acid]
Ki [1]: < 100 nM
Ki [2]: < 100 nM
Ki (CTX-M-14, NCF) [3]: X (Less than 0.1 μM)
Ki [4]: 100 to 1000 nM
Ki (P99/AmpC of ECL, NCF) [5]: Z (Greater than 1 μM)
IC50 (VIM-1): < 1000 nM
Ki (NDM-1 [6]): 10 to 100 nM
Ki (NDM-1 [7]): 10 to 100 nM

COc1ccc2c(c1C(=O)O)OB(O)[C@@H](Sc1nnc(NCCNC3CNC3)s1)C2 [Compound 105, (3R)-3-[[5-[2-(azetidin-3-ylamino)ethylamino]-1,3,4-thiadiazol-2-yl]sulfanyl]-2-hydroxy-7-methoxy-3,4-dihydro-1,2-benzoxaborinine-8-carboxylic acid]
Ki [1]: < 100 nM
Ki [2]: < 100 nM
Ki (CTX-M-14, NCF) [3]: X (Less than 0.1 μM)
Ki [4]: 100 to 1000 nM
Ki (P99/AmpC of ECL, NCF) [5]: Y (0.1 μM to 1 μM)
IC50 (VIM-1): < 1000 nM
Ki (NDM-1 [6]): < 10 nM
Ki (NDM-1 [7]): < 10 nM

NCCOc1ccc2c(c1C(=O)O)OB(O)[C@@H](Sc1nnc(N)s1)C2 [Compound 79, (3R)-7-(2-aminoethoxy)-3-[(5-amino-1,3,4-thiadiazol-2-yl)sulfanyl]-2-hydroxy-3,4-dihydro-1,2-benzoxaborinine-8-carboxylic acid]
Ki [1]: < 100 nM
Ki [2]: < 100 nM
Ki (CTX-M-14, NCF) [3]: X (Less than 0.1 μM)
Ki [4]: > 1000 nM
Ki (P99/AmpC of ECL, NCF) [5]: Y (0.1 μM to 1 μM)
IC50 (VIM-1): ≥ 1000 nM
Ki (NDM-1 [6]): > 100 nM
Ki (NDM-1 [7]): > 100 nM

COc1ccc2c(c1C(=O)O)OB(O)[C@@H](Sc1nnc(SCCN)s1)C2 [Compound 107, (3R)-3-[[5-(2-aminoethylsulfanyl)-1,3,4-thiadiazol-2-yl]sulfanyl]-2-hydroxy-7-methoxy-3,4-dihydro-1,2-benzoxaborinine-8-carboxylic acid]
Ki [1]: < 100 nM
Ki [2]: < 100 nM
Ki (CTX-M-14, NCF) [3]: X (Less than 0.1 μM)
Ki [4]: 100 to 1000 nM
Ki (P99/AmpC of ECL, NCF) [5]: Y (0.1 μM to 1 μM)
IC50 (VIM-1): < 1000 nM
Ki (NDM-1 [6]): < 10 nM
Ki (NDM-1 [7]): < 10 nM

COc1ccc2c(c1C(=O)O)OB(O)[C@@H](Sc1nnc(NC3CCNCC3)s1)C2 [Compound 104, (3R)-2-hydroxy-7-methoxy-3-[[5-(4-piperidylamino)-1,3,4-thiadiazol-2-yl]sulfanyl]-3,4-dihydro-1,2-benzoxaborinine-8-carboxylic acid]
Ki [1]: < 100 nM
Ki [2]: < 100 nM
Ki (CTX-M-14, NCF) [3]: X (Less than 0.1 μM)
Ki [4]: < 100 nM
Ki (P99/AmpC of ECL, NCF) [5]: Y (0.1 μM to 1 μM)
IC50 (VIM-1): < 1000 nM
Ki (NDM-1 [6]): < 10 nM
Ki (NDM-1 [7]): < 10 nM

N#CCOc1ccc2c(c1C(=O)O)OB(O)[C@@H](Sc1nncs1)C2 [Compound 86, (3R)-7-(cyanomethoxy)-2-hydroxy-3-(1,3,4-thiadiazol-2-ylsulfanyl)-3,4-dihydro-1,2-benzoxaborinine-8-carboxylic acid]
Ki [1]: < 100 nM
Ki [2]: < 100 nM
Ki (CTX-M-14, NCF) [3]: X (Less than 0.1 μM)
Ki [4]: 100 to 1000 nM
Ki (P99/AmpC of ECL, NCF) [5]: Z (Greater than 1 μM)
IC50 (VIM-1): < 1000 nM
Ki (NDM-1 [6]): > 100 nM
Ki (NDM-1 [7]): > 100 nM

COc1ccc2c(c1C(=O)O)OB(O)[C@@H](Sc1nnc(CN)n1N)C2 [Compound 66, (3R)-3-[[4-amino-5-(aminomethyl)-1,2,4-triazol-3-yl]sulfanyl]-2-hydroxy-7-methoxy-3,4-dihydro-1,2-benzoxaborinine-8-carboxylic acid]
Ki [1]: 100 to 1000 nM
Ki [2]: < 100 nM
Ki (CTX-M-14, NCF) [3]: X (Less than 0.1 μM)
Ki [4]: 100 to 1000 nM
Ki (P99/AmpC of ECL, NCF) [5]: Z (Greater than 1 μM)
IC50 (VIM-1): < 1000 nM
Ki (NDM-1 [6]): 10 to 100 nM
Ki (NDM-1 [7]): 10 to 100 nM

COc1ccc2c(c1C(=O)O)OB(O)[C@@H](Sc1nncn1CCCC(=O)O)C2 [Compound 41, (R)-3-(4-(3-carboxypropyl)-4H-1,2,4-triazol-3-ylthio)-2-hydroxy-7-methoxy-3,4-dihydro-2H-benzo[e][1,2]oxaborinine-8-carboxylic acid]
Ki [1]: < 100 nM
Ki [2]: < 100 nM
Ki (CTX-M-14, NCF) [3]: X (Less than 0.1 μM)
Ki [4]: < 100 nM
Ki (P99/AmpC of ECL, NCF) [5]: X (Less than 0.1 μM)
IC50 (VIM-1): < 1000 nM
Ki (NDM-1 [6]): < 10 nM
Ki (NDM-1 [7]): < 10 nM

COc1ccc2c(c1C(=O)O)OB(O)[C@@H](Sc1nnc(NCCCN)s1)C2 [Compound 100, (3R)-3-[[5-(3-aminopropylamino)-1,3,4-thiadiazol-2-yl]sulfanyl]-2-hydroxy-7-methoxy-3,4-dihydro-1,2-benzoxaborinine-8-carboxylic acid]
Ki [1]: < 100 nM
Ki [2]: < 100 nM
Ki (CTX-M-14, NCF) [3]: X (Less than 0.1 μM)
Ki [4]: 100 to 1000 nM
Ki (P99/AmpC of ECL, NCF) [5]: X (Less than 0.1 μM)
IC50 (VIM-1): < 1000 nM
Ki (NDM-1 [6]): < 10 nM
Ki (NDM-1 [7]): < 10 nM

COc1ccc2c(c1C(=O)O)OB(O)[C@@H](Sc1ncns1)C2 [Compound 75, (3R)-2-hydroxy-7-methoxy-3-(1,2,4-thiadiazol-5-ylsulfanyl)-3,4-dihydro-1,2-benzoxaborinine-8-carboxylic acid]
Ki [1]: < 100 nM
Ki [2]: < 100 nM
Ki (CTX-M-14, NCF) [3]: X (Less than 0.1 μM)
Ki [4]: < 100 nM
Ki (P99/AmpC of ECL, NCF) [5]: Y (0.1 μM to 1 μM)
IC50 (VIM-1): < 1000 nM
Ki (NDM-1 [6]): > 100 nM
Ki (NDM-1 [7]): > 100 nM

O=C(O)c1c(F)ccc2c1OB(O)[C@@H](Sc1nccs1)C2 [Compound 45, (R)-7-fluoro-2-hydroxy-3-(thiazol-2-ylthio)-3,4-dihydro-2H-benzo[e][1,2]oxaborinine-8-carboxylic acid]
Ki [1]: < 100 nM
Ki [2]: < 100 nM
Ki (CTX-M-14, NCF) [3]: X (Less than 0.1 μM)
Ki [4]: 100 to 1000 nM
Ki (P99/AmpC of ECL, NCF) [5]: Z (Greater than 1 μM)
IC50 (VIM-1): ≥ 1000 nM
Ki (NDM-1 [6]): 10 to 100 nM
Ki (NDM-1 [7]): 10 to 100 nM

COc1ccc2c(c1C(=O)O)OB(O)[C@@H](Sc1nnc(NC(C)=O)s1)C2 [Compound 63, (3R)-3-[(5-acetamido-1,3,4-thiadiazol-2-yl)sulfanyl]-2-hydroxy-7-methoxy-3,4-dihydro-1,2-benzoxaborinine-8-carboxylic acid]
Ki [1]: < 100 nM
Ki [2]: < 100 nM
Ki (CTX-M-14, NCF) [3]: X (Less than 0.1 μM)
Ki [4]: 100 to 1000 nM
Ki (P99/AmpC of ECL, NCF) [5]: X (Less than 0.1 μM)
IC50 (VIM-1): < 1000 nM
Ki (NDM-1 [6]): > 100 nM
Ki (NDM-1 [7]): > 100 nM

CC(C)COc1ccc2c(c1C(=O)O)OB(O)[C@@H](Sc1nncs1)C2 [Compound 88, (3R)-2-hydroxy-7-isobutoxy-3-(1,3,4-thiadiazol-2-ylsulfanyl)-3,4-dihydro-1,2-benzoxaborinine-8-carboxylic acid]
Ki [1]: < 100 nM
Ki [2]: < 100 nM
Ki (CTX-M-14, NCF) [3]: X (Less than 0.1 μM)
Ki [4]: 100 to 1000 nM
Ki (P99/AmpC of ECL, NCF) [5]: Y (0.1 μM to 1 μM)
IC50 (VIM-1): < 1000 nM
Ki (NDM-1 [6]): 10 to 100 nM
Ki (NDM-1 [7]): 10 to 100 nM

Nc1nnc(S[C@H]2Cc3cc4nc[nH]c4c(C(=O)O)c3OB2O)s1 [Compound 115, (3R)-3-[(5-amino-1,3,4-thiadiazol-2-yl)sulfanyl]-2-hydroxy-4,8-dihydro-3H-oxaborinino[6,5-f]benzimidazole-9-carboxylic acid]
Ki [1]: < 100 nM
Ki [2]: < 100 nM
Ki (CTX-M-14, NCF) [3]: X (Less than 0.1 μM)
Ki [4]: 100 to 1000 nM
Ki (P99/AmpC of ECL, NCF) [5]: X (Less than 0.1 μM)
IC50 (VIM-1): < 1000 nM
Ki (NDM-1 [6]): > 100 nM
Ki (NDM-1 [7]): > 100 nM

COc1ccc2c(c1C(=O)O)OB(O)[C@@H](Sc1nnc[nH]1)C2 [Compound 70, (3R)-2-hydroxy-7-methoxy-3-(4H-1,2,4-triazol-3-ylsulfanyl)-3,4-dihydro-1,2-benzoxaborinine-8-carboxylic acid]
Ki [1]: < 100 nM
Ki [2]: < 100 nM
Ki (CTX-M-14, NCF) [3]: X (Less than 0.1 μM)
Ki [4]: 100 to 1000 nM
Ki (P99/AmpC of ECL, NCF) [5]: Y (0.1 μM to 1 μM)
IC50 (VIM-1): < 1000 nM
Ki (NDM-1 [6]): 10 to 100 nM
Ki (NDM-1 [7]): 10 to 100 nM
